# Data from patent US20090137580A1, “Fused Heterocyclic Derivatives and Use Thereof” (Takeda Pharmaceutical Company Limited, priority 2005, published 2009).
# Key:
# [1] = molecular target: T1, PDGFRbeta Receptor Kinase (PDGFRbeta) (Homo sapiens, UniProt P09619); experiment: Determination of PDGFRbeta receptor kinase (PDGFRbeta) inhibitory activity (alpha screen); type: biochemical; details: PDGFRbeta intracellular domain protein, 25 μM ATP buffer; read-out: IC50 value (PDGFRbeta kinase inhibition)
# T1 construct: PDGFRbeta intracellular domain protein (UPSTATE); purchased UPSTATE
# Method: (§1) The test compound dissolved in dimethyl sulfoxide (DMSO) was diluted with a buffer (50 mM Tris-HCl, pH 7.5, 5 mM MgCl2, 5 mM MnCl2, 2 mM dithiothreitol, 0.01% Tween-20). A buffer (10 μl) containing 125 ng/ml PDGFRbeta intracellular domain protein (UPSTATE) and 250 ng/ml biotin-labeled polypeptide biotinyl-poly-Glu:Tyr (4:1) (CIS Bio International) was added to the compound solution (5 μl). At 5 min after mixing a kinase enzyme, the compound and a biotin-labeled polypeptide, a buffer (10 μl) containing 25 μM ATP was added to the obtained mixture, the mixture was allowed to react at 25° C. for 30 min. Then, 25 μl of a stop solution (100 mM EDTA·2 sodium salt, 62.5 mM HEPES buffer (pH 7.4), 250 mM NaCl, 0.1% bovine serum albumin, 10 μg/ml Streptavidin Donor beads: PerkinElmer for alpha screen assay, 10 μg/ml Anti-phosphotyrosine (P-Tyr-66) Acceptor beads: PerkinElmer for alpha screen assay) was added to quench the reaction. The reaction solution was stood at 25° C. for 16 hr, and the count was measured using a plate reader·Fusion™ (manufactured by PerkinElmer). The kinase inhibitory rate (%) of the test compound was calculated by the following formula.
# (§2) Inhibitory rate(%)=(1−(count of test compound−blank)÷(control−blank))×100
# (§3) wherein the count of the solution reacted without addition of the compound is “control” and the count of the solution without addition of the compound and ATP is “blank”.
# [2] = molecular target: T2, TIE2 Receptor Kinase (TIE2) (Homo sapiens, UniProt Q02763); experiment: Determination of TIE2 receptor kinase (TIE2) inhibitory activity (alpha screen); type: biochemical; details: TIE2 intracellular domain protein, 5 μM ATP buffer; read-out: IC50 value (TIE2 kinase inhibition)
# T2 construct: TIE2 intracellular domain protein (UPSTATE); purchased UPSTATE
# Method: as §1, with “containing 50” for “containing 125”, “ng/ml TIE2” for “ng/ml PDGFRbeta”, “containing 5” for “containing 25”, “for 10” for “for 30”
# as §2, §3
# Prism (Graphpad Software) according to the nonlinear-regression sigmoidal dose-response (variable slope) analysis method.
# T1 sequence (P09619 554-1106 limits assumed): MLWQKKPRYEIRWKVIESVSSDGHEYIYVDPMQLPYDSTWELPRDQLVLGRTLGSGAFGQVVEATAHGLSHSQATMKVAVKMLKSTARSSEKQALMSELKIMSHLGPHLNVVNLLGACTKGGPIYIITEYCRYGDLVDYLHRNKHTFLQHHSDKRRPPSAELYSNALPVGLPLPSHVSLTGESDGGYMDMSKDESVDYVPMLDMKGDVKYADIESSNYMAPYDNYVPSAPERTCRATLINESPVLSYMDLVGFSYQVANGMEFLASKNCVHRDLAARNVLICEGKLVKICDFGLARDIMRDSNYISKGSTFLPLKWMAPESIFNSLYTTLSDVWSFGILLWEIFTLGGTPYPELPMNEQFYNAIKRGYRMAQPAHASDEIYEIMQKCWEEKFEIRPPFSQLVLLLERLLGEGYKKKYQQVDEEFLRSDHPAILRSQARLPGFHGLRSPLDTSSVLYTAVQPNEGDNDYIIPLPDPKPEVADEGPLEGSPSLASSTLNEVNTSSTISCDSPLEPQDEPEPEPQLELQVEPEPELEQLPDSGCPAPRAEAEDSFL
# T2 sequence (Q02763 770-1124 limits assumed): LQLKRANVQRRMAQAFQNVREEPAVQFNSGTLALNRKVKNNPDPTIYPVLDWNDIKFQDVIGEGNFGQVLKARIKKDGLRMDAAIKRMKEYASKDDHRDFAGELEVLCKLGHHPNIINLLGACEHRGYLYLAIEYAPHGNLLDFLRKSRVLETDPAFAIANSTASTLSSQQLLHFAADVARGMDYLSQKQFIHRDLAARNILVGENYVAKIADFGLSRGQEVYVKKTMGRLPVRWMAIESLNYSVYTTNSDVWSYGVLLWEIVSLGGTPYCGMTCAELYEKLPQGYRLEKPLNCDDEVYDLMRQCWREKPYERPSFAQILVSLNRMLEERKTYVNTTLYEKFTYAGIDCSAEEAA
SMILES,IC50 [1],IC50 [2]
"Cn1ccc2ncnc(Oc3ccc(NC(=O)Nc4cccc(C(F)(F)F)c4)c(Cl)c3)c21 [Example 15, N-{2-chloro-4-[(5-methyl-5H-pyrrolo[3,2-d]pyrimidin-4-yl)oxy]phenyl}-N′-[3-(trifluoromethyl)phenyl]urea]",≤ 500 nM,≤ 5 nM
"Cn1ccc2ncnc(Oc3ccc(NC(=O)Nc4cccc(OC(F)(F)F)c4)c(Cl)c3)c21 [Example 20, N-{2-chloro-4-[(5-methyl-5H-pyrrolo[3,2-d]pyrimidin-4-yl)oxy]phenyl}-N′-[3-(trifluoromethoxy)phenyl]urea]",≤ 500 nM,≤ 5 nM
"Cc1cc(Oc2ncnc3ccn(C)c23)ccc1NC(=O)Nc1cccc(C(F)(F)F)c1 [Example 41, N-{2-methyl-4-[(5-methyl-5H-pyrrolo[3,2-d]pyrimidin-4-yl)oxy]phenyl}-N′-[3-(trifluoromethyl)phenyl]urea]",≤ 500 nM,≤ 5 nM
"CCn1ccc2ncnc(Oc3ccc(NC(=O)Nc4cccc(C(F)(F)F)c4)c(Cl)c3)c21 [Example 47, N-{2-chloro-4-[(5-ethyl-5H-pyrrolo[3,2-d]pyrimidin-4-yl)oxy]phenyl}-N′-[3-(trifluoromethyl)phenyl]urea]",≤ 500 nM,≤ 5 nM
